Results taken from patent US9475816B2, “Substituted-1,4-dihydropyrazolo[4,3-b]indoles” (TAKEDA PHARMACEUTICAL COMPANY LIMITED, priority 2012, dated 2016).

Key:
human MetAP2 enzyme [1] = target: T1, human MetAP2 enzyme (Homo sapiens, UniProt P50579); assay: MetAP2 enzyme assay, MetAP2 enzyme complexed with cobalt ions; conditions: MetAP2 Co pIC50, 10 μM CoCl2; -log(IC50), IC50 molar
Procedure: (§1) DNA encoding the full-length sequence of human MetAP2 enzyme is amplified by PCR and cloned into a pFastBac expression vector (Invitrogen). Recombinant baculovirus incorporating the MetAP2 construct is generated by transposition using the Bac-to-Bac system (Invitrogen). The expression of recombinant protein is carried out by infection of Spodoptera frugiperda Sf9 cells (Invitrogen) in 5L Wave Bioreactors (Wave Biotech). Recombinant protein is isolated from cellular extracts by binding to an SP Hitrap Fast Flow or SP Sepharose (Sigma) column, and the protein is eluted using a NaCl gradient. Partially purified extracts of MetAP2 are further purified by an AKTA FPLC over a Superdex-200 column (GE). The purity of MetAP2 protein is determined on denaturing SDS-PAGE gel.
(§2) The results for each well are expressed as percent inhibition and calculated using the equation:

human MetAP2 enzyme [2] = target: T1, human MetAP2 enzyme; assay: MetAP2 enzyme assay, MetAP2 enzyme complexed with manganese ions; conditions: MetAP2 Mn pIC50, 10 μM MnCl2; -log(IC50), IC50 molar
Procedure: as §1, §2

T1 sequence (P50579 whole entry): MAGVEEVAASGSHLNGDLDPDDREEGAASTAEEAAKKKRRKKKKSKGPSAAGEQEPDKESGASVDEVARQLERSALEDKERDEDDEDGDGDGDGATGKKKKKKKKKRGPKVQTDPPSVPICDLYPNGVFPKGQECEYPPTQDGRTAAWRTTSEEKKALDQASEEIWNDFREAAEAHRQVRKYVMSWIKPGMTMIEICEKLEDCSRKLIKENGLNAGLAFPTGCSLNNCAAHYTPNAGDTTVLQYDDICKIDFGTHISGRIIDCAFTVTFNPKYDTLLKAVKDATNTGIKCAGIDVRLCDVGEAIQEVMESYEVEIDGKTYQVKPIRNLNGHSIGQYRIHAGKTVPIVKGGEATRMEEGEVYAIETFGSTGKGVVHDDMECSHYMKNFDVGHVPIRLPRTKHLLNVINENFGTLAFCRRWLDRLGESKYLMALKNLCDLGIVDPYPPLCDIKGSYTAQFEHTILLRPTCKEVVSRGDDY

| IC50 (human MetAP2 enzyme [1]) | IC50 (human MetAP2 enzyme [2]) | Structure (SMILES) |
| --- | --- | --- |
| 10 nM | 3.16 nM | Cc1c(-n2c3ccc(F)cc3c3[nH]ncc32)cnc(N)c1C [Example 68, 5-(7-Fluoropyrazolo[4,3-b]indol-4(1H)-yl)-3,4-dimethylpyridin-2-amine] |
| 7.94 nM | 3.16 nM | Cc1nc(N2CCC[C@H]2C(N)=O)ncc1-n1c2ccc(F)cc2c2[nH]ncc21 [Example 72, (2S)-1-(5-(7-Fluoropyrazolo[4,3-b]indol-4(1H)-yl)-4-methylpyrimidin-2-yl)pyrrolidine-2-carboxamide] |
| 15.8 nM | 12.6 nM | Cc1nc(N)ncc1-n1c2ccc(F)cc2c2[nH]ncc21 [Example 85, 5-(7-Fluoropyrazolo[4,3-b]indol-4(1H)-yl)-4-methylpyrimidin-2-amine] |
| 10 nM | 5.01 nM | Cn1cc(-n2c3ccc(F)cc3c3[nH]ncc32)c(CO)n1 [Example 138, (4-(7-Fluoropyrazolo[4,3-b]indol-4(1H)-yl)-1-methyl-1H-pyrazol-3-yl)methanol] |
| 25.1 nM | 12.6 nM | Cc1nc(N2CCC(F)CC2)ncc1-n1c2ccc(F)cc2c2[nH]ncc21 [Example 57, 7-Fluoro-4-(2-(4-fluoropiperidin-1-yl)-4-methylpyrimidin-5-yl)-1,4-dihydropyrazolo[4,3-b]indole] |
| 39.8 nM | 31.6 nM | Fc1ccc2c(c1)c1[nH]ncc1n2Cc1ccccc1 [Example 1, 4-Benzyl-7-fluoro-1,4-dihydropyrazolo[4,3-b]indole] |
| 12.6 nM | 10 nM | Cc1cc(C(=O)NCCCO)ncc1-n1c2ccc(F)cc2c2[nH]ncc21 [Example 115, 5-(7-Fluoropyrazolo[4,3-b]indol-4(1H)-yl)-N-(3-hydroxypropyl)-4-methylpicolinamide] |
| 20 nM | 25.1 nM | Cc1cc(C(=O)N(C)C)ncc1-n1c2ccc(F)cc2c2[nH]ncc21 [Example 108, 5-(7-Fluoropyrazolo[4,3-b]indol-4(1H)-yl)-N,N,4-trimethylpicolinamide] |
| 3.16 nM | 10 nM | Cc1nc(N2CCN(C)CC2)ncc1-n1c2ccc(F)cc2c2[nH]ncc21 [Example 60, 7-Fluoro-4-(4-methyl-2-(4-methylpiperazin-1-yl)pyrimidin-5-yl)-1,4-dihydropyrazolo[4,3-b]indole] |
| 7.94 nM | 10 nM | Cc1nc2[nH]c(=O)n(CCO)c2cc1-n1c2ccc(F)cc2c2[nH]ncc21 [Example 32, 6-(7-Fluoropyrazolo[4,3-b]indol-4(1H)-yl)-1-(2-hydroxyethyl)-5-methyl-1H-imidazo[4,5-b]pyridin-2(3H)-one] |
| 6.31 nM | 12.6 nM | CNc1cc(C)c(-n2c3ccc(F)cc3c3[nH]ncc32)cn1 [Example 45, 5-(7-Fluoropyrazolo[4,3-b]indol-4(1H)-yl)-N,4-dimethylpyridin-2-amine] |
| 7.94 nM | 10 nM | Cc1nc2c(cc1-n1c3ccc(F)cc3c3[nH]ncc31)ncn2CCO [Example 82, 2-(6-(7-Fluoropyrazolo[4,3-b]indol-4(1H)-yl)-5-methyl-3H-imidazo[4,5-b]pyridin-3-yl)ethanol] |
| 10 nM | 6.31 nM | Cc1nc(C(=O)N2CC(O)C2)ccc1-n1c2ccc(F)cc2c2[nH]ncc21 [Example 97, (5-(7-Fluoropyrazolo[4,3-b]indol-4(1H)-yl)-6-methylpyridin-2-yl)(3-hydroxyazetidin-1-yl)methanone] |
| 12.6 nM | 7.94 nM | Cc1cc2c(cc1F)c1[nH]ncc1n2-c1cc2[nH]cnc2nc1C [Example 131, 7-Fluoro-6-methyl-4-(5-methyl-1H-imidazo[4,5-b]pyridin-6-yl)-1,4-dihydropyrazolo[4,3-b]indole] |
| 10 nM | 15.8 nM | Cc1nc(N)ccc1-n1c2ccc(F)cc2c2[nH]ncc21 [Example 42, 5-(7-Fluoropyrazolo[4,3-b]indol-4(1H)-yl)-6-methylpyridin-2-amine] |
| 6.31 nM | 10 nM | Cc1nc(N2CC[C@H](C(=O)NCCO)C2)ncc1-n1c2ccc(F)cc2c2[nH]ncc21 [Example 103, (3S)-1-(5-(7-Fluoropyrazolo[4,3-b]indol-4(1H)-yl)-4-methylpyrimidin-2-yl)-N-(2-hydroxyethyl)pyrrolidine-3-carboxamide] |
| 50.1 nM | 63.1 nM | COCCNC(=O)c1cc(C)c(-n2c3ccc(F)cc3c3[nH]ncc32)cn1 [Example 105, 5-(7-Fluoropyrazolo[4,3-b]indol-4(1H)-yl)-N-(2-methoxyethyl)-4-methylpicolinamide] |
| 10 nM | 10 nM | Cc1nc(C(=O)NC[C@H](C)O)ccc1-n1c2ccc(F)cc2c2[nH]ncc21 [Example 126, 5-(7-Fluoropyrazolo[4,3-b]indol-4(1H)-yl)-N-((2S)-2-hydroxypropyl)-6-methylpicolinamide] |
| 15.8 nM | 12.6 nM | Cc1ncccc1-n1c2ccc(F)cc2c2[nH]ncc21 [Example 61, 7-Fluoro-4-(2-methylpyridin-3-yl)-1,4-dihydropyrazolo[4,3-b]indole] |

| IC50 (human MetAP2 enzyme [1]) | IC50 (human MetAP2 enzyme [2]) | Structure (SMILES) |
| --- | --- | --- |
| 25.1 nM | 10 nM | Cc1nc(C(=O)NCCCO)ccc1-n1c2ccc(F)cc2c2[nH]ncc21 [Example 118, 5-(7-Fluoropyrazolo[4,3-b]indol-4(1H)-yl)-N-(3-hydroxypropyl)-6-methylpicolinamide] |
| 12.6 nM | 12.6 nM | Cc1nc(N2CC(F)(F)C2)ncc1-n1c2ccc(F)cc2c2[nH]ncc21 [Example 43, 4-(2-(3,3-Difluoroazetidin-1-yl)-4-methylpyrimidin-5-yl)-7-fluoro-1,4-dihydropyrazolo[4,3-b]indole] |
| 7.94 nM | 10 nM | Cc1nc2[nH]c(=O)[nH]c2cc1-n1c2ccc(F)cc2c2[nH]ncc21 [Example 87, 6-(7-Fluoropyrazolo[4,3-b]indol-4(1H)-yl)-5-methyl-1H-imidazo[4,5-b]pyridin-2(3H)-one] |
| 501 nM | 158 nM | O=C(NCc1ccccc1)n1c2ccc(F)cc2c2[nH]ncc21 [Example 98, N-Benzyl-7-fluoropyrazolo[4,3-b]indole-4(1H)-carboxamide] |
| 31.6 nM | 10 nM | N#Cc1[nH]ncc1-n1c2ccc(F)cc2c2[nH]ncc21 [Example 22, 4-(7-Fluoropyrazolo[4,3-b]indol-4(1H)-yl)-1H-pyrazole-5-carbonitrile] |
| 100 nM | 6.31 nM | Cc1cccc(-n2c3ccc(F)cc3c3[nH]ncc32)n1 [Example 11, 7-Fluoro-4-(6-methylpyridin-2-yl)-1,4-dihydropyrazolo[4,3-b]indole] |
| 12.6 nM | 12.6 nM | Cc1cc2[nH]ncc2cc1-n1c2ccc(F)cc2c2[nH]ncc21 [Example 19, 7-Fluoro-4-(6-methyl-1H-indazol-5-yl)-1,4-dihydropyrazolo[4,3-b]indole] |
| 7.94 nM | 15.8 nM | Cc1nc(N2CC(O)C2)ncc1-n1c2ccc(F)cc2c2[nH]ncc21 [Example 127, 1-(5-(7-Fluoropyrazolo[4,3-b]indol-4(1H)-yl)-4-methylpyrimidin-2-yl)azetidin-3-ol] |
| 7.94 nM | 6.31 nM | Cc1cc2cn(C)nc2cc1-n1c2ccc(F)cc2c2[nH]ncc21 [Example 16, 4-(2,5-Dimethyl-2H-indazol-6-yl)-7-fluoro-1,4-dihydropyrazolo[4,3-b]indole] |
| 15.8 nM | 15.8 nM | Cc1[nH]c(=O)ccc1-n1c2ccc(F)cc2c2[nH]ncc21 [Example 40, 5-(7-Fluoropyrazolo[4,3-b]indol-4(1H)-yl)-6-methylpyridin-2(1H)-one] |
| 15.8 nM | 12.6 nM | Cc1nc(N2CCNCC2)ccc1-n1c2ccc(F)cc2c2[nH]ncc21 [Example 64, 7-Fluoro-4-(2-methyl-6-(piperazin-1-yl)pyridin-3-yl)-1,4-dihydropyrazolo[4,3-b]indole] |
| 12.6 nM | 10 nM | CNC(=O)c1cc(C)c(-n2c3ccc(F)cc3c3[nH]ncc32)cn1 [Example 113, 5-(7-Fluoropyrazolo[4,3-b]indol-4(1H)-yl)-N,4-dimethylpicolinamide] |
| 15.8 nM | 25.1 nM | Cc1nc2c(cc1-n1c3ccc(F)cc3c3[nH]ncc31)ncn2C[C@H](O)CO [Example 79, (2S)-3-(6-(7-Fluoropyrazolo[4,3-b]indol-4(1H)-yl)-5-methyl-3H-imidazo[4,5-b]pyridin-3-yl)propane-1,2-diol] |
| 25.1 nM | 15.8 nM | Cc1nc(N2CC[C@H](O)C2)ncc1-n1c2ccc(F)cc2c2[nH]ncc21 [Example 55, (S)-1-(5-(7-Fluoropyrazolo[4,3-b]indol-4(1H)-yl)-4-methylpyrimidin-2-yl)pyrrolidin-3-ol] |
| 12.6 nM | 10 nM | Cc1nc(N2CCC(CO)CC2)ncc1-n1c2ccc(F)cc2c2[nH]ncc21 [Example 59, (1-(5-(7-Fluoropyrazolo[4,3-b]indol-4(1H)-yl)-4-methylpyrimidin-2-yl)piperidin-4-yl)methanol] |
| 39.8 nM | 79.4 nM | Cc1nc(N2CC[C@@H](N(C)C)C2)ncc1-n1c2ccc(F)cc2c2[nH]ncc21 [Example 35, (3R)-1-(5-(7-Fluoropyrazolo[4,3-b]indol-4(1H)-yl)-4-methylpyrimidin-2-yl)-N,N-dimethylpyrrolidin-3-amine] |
| 7.94 nM | 12.6 nM | Cc1nc(NC[C@@H](O)CO)ncc1-n1c2ccc(F)cc2c2[nH]ncc21 [Example 86, (2R)-3-((5-(7-Fluoropyrazolo[4,3-b]indol-4(1H)-yl)-4-methylpyrimidin-2-yl)amino)propane-1,2-diol] |
| 20 nM | 15.8 nM | Cc1nc(C(=O)N(C)CC#N)ccc1-n1c2ccc(F)cc2c2[nH]ncc21 [Example 121, N-(Cyanomethyl)-5-(7-fluoropyrazolo[4,3-b]indol-4(1H)-yl)-N,6-dimethylpicolinamide] |
